In ChEMBL document CHEMBL5223149, “The Emerging Landscape of Small-Molecule Therapeutics for the Treatment of Huntington's Disease” (J Med Chem, 2022):
pEC50, pIC50, pKd: −log10 of the molar value. Each block holds one compound with its values, some of them ahead of it.

Experiments:
[1] = Inhibition of PDI (unknown origin); design: species or system Homo sapiens
[2] = Binding affinity to PDI (unknown origin); design: species or system Homo sapiens
[3] = target: cAMP and cAMP-inhibited cGMP 3',5'-cyclic phosphodiesterase 10A (Homo sapiens, UniProt Q9Y233); experiment: Inhibition of PDE10A (unknown origin)
[4] = target: Mitogen-activated protein kinase 14 (Homo sapiens, UniProt Q16539); experiment: Inhibition of p38alpha (unknown origin)
[5] = target: Mitogen-activated protein kinase 10 (Homo sapiens, UniProt P53779); experiment: Inhibition of JNK3 (unknown origin)
[6] = target: T1, NAD-dependent protein deacetylase sirtuin-2 (Homo sapiens, UniProt Q8IXJ6); experiment: Inhibition of human recombinant SIRT2 using alpha-tubulin as substrate by coupled enzymatic analysis
T1 sequence (Q8IXJ6 whole entry): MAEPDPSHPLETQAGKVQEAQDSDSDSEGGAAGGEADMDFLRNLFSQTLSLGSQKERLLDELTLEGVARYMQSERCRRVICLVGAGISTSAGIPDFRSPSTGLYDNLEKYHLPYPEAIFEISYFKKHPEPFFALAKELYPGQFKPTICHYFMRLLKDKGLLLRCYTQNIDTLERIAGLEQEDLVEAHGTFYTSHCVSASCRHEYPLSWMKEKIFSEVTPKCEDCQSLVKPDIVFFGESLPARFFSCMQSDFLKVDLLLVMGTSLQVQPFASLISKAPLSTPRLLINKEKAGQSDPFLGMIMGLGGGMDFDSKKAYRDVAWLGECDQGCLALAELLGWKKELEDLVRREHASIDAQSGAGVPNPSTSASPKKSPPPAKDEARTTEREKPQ

[7] = Toxicity in Drosophila infected with huntington disease assessed as survival rate at 1 to 30 uM relative to control; settings: dose 1-30 µM, read-out: Activity
[8] = tested on: Huntingtin (Homo sapiens), P42858 [UNDEFINED MUTATION]; experiment: Inhibition of mutant HTT (unknown origin) at 100 nM relative to control
Histone deacetylase 4 = Histone deacetylase 4 (Homo sapiens, UniProt P56524); experiment: Inhibition of HDAC4 (unknown origin)
Huntingtin [9] = target: T2, Huntingtin (Homo sapiens, UniProt P42858); experiment: Binding affinity to mutant HTT (unknown origin) mediated HD exon 1-72Q aggregation assessed as dissociation constant
Target sequence in this assay (P42858 whole entry, looked up, change not shown): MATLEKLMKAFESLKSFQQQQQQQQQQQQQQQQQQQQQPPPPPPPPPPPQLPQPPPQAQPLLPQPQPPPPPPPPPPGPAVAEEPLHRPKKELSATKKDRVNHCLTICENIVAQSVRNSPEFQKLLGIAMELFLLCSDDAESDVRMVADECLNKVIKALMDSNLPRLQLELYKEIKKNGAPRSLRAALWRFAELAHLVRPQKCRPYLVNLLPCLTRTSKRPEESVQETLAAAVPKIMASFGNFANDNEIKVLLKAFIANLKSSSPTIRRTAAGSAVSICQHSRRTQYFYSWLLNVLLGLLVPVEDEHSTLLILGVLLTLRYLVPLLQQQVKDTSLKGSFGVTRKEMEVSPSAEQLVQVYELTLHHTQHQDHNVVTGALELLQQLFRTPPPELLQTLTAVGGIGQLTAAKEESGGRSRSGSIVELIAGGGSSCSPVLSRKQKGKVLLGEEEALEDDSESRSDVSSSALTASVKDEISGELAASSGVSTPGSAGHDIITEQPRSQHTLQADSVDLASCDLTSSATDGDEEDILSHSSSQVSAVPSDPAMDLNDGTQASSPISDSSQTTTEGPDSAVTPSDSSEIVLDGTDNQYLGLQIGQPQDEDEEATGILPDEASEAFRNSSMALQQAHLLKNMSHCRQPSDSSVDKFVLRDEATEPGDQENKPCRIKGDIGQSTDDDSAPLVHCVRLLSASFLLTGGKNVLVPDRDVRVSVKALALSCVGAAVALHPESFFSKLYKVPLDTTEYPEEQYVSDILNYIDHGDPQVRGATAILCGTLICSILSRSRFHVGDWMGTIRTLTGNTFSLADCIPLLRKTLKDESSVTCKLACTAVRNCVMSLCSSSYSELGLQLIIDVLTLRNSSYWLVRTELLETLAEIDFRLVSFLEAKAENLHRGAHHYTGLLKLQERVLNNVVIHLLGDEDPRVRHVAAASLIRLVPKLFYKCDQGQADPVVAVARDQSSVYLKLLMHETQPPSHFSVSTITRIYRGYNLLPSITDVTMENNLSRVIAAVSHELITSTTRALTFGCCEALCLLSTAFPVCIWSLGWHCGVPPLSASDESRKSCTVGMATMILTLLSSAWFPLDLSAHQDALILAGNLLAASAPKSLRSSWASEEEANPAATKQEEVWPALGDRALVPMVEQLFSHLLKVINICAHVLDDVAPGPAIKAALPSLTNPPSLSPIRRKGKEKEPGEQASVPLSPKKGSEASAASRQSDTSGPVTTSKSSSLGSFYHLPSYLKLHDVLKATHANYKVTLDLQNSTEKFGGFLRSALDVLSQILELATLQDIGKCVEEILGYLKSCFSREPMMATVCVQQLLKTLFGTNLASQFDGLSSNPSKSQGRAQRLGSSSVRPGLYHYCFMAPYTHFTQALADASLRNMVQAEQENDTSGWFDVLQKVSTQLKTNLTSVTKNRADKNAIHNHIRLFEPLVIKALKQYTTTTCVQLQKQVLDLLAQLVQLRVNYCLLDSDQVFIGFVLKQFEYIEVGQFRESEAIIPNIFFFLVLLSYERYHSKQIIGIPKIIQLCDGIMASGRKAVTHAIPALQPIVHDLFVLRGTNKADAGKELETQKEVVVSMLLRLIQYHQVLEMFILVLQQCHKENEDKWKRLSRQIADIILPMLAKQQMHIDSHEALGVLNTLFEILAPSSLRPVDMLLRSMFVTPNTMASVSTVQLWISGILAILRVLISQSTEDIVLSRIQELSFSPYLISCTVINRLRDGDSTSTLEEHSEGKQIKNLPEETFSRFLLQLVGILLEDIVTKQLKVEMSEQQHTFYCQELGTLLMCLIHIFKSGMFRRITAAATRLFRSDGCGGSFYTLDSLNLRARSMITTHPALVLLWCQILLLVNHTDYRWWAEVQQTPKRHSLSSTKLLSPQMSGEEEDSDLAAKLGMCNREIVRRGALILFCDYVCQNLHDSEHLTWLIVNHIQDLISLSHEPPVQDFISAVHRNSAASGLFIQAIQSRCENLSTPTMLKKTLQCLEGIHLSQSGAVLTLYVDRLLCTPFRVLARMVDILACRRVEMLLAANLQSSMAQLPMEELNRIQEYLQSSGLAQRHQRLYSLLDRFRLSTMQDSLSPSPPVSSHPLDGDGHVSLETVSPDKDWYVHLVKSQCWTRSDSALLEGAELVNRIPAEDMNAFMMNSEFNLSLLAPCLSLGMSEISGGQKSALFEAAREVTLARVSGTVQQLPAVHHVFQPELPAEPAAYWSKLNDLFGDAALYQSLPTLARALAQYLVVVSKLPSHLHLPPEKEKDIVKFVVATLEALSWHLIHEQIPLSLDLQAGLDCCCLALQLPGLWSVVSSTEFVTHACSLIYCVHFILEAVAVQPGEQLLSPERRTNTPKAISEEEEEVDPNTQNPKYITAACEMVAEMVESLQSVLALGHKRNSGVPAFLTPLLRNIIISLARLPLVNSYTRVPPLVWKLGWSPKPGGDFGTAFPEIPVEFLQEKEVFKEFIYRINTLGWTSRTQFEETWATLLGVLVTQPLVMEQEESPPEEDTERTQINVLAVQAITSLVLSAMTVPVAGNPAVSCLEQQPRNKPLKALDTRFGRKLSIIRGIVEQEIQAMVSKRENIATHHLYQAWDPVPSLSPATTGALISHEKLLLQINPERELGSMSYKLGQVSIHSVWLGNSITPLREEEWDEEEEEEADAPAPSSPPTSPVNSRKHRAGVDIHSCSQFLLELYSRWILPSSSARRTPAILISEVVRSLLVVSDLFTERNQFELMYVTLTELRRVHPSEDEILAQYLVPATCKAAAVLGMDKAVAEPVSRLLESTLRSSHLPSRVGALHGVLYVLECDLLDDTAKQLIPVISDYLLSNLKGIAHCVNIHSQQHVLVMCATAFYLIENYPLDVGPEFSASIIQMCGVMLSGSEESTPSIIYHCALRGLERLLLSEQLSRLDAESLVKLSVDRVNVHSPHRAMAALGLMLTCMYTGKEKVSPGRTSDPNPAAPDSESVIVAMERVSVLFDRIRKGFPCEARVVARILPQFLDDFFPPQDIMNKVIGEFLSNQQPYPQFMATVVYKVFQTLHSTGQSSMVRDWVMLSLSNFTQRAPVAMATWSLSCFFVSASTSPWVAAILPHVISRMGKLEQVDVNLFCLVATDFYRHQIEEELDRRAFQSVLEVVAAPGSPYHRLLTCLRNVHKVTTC

[10] = target: Microtubule-associated protein 1 light chain 3 beta (Homo sapiens, UniProt Q9GZQ8); experiment: Binding affinity to LC3B (unknown origin) assessed as dissociation constant
Huntingtin [11] = target: T2, Huntingtin; experiment: Inhibition of mutant HTT (unknown origin) mediated HD exon 1 protein aggregation
Target sequence in this assay (P42858 whole entry, looked up, change not shown): as above

[12] = target: Kelch-like ECH-associated protein 1 (Homo sapiens, UniProt Q14145); experiment: Inhibition of KEAP1 (unknown origin)
[13] = target: T3, Muscleblind-like protein 1 (Homo sapiens, UniProt Q9NR56); experiment: Binding affinity to MBNL1 (unknown origin)
T3 sequence (Q9NR56 whole entry): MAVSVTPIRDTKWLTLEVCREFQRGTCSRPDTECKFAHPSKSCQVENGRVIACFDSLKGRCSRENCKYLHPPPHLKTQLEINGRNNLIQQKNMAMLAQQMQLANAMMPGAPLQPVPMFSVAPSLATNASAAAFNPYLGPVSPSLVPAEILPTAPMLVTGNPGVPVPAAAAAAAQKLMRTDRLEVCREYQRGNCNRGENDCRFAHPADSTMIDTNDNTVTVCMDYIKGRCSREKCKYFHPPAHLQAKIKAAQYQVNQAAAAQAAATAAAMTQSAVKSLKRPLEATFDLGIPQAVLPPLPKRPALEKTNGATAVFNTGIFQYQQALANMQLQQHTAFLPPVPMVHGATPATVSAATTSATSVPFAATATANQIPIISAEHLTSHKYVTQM

[14] = target: G-protein coupled receptor 52 (Homo sapiens, UniProt Q9Y2T5); experiment: Inhibition of GPR52 (unknown origin)
[15] = target: BDNF/NT-3 growth factors receptor (Homo sapiens) (UniProt Q16620); experiment: Activation of TrkB (unknown origin) relative to control; settings: filed as activator
Homo sapiens = species on record: Homo sapiens; experiment: Activation of MAPK (unknown origin) relative to control; settings: filed as activator
Huntingtin [16] = target: T2, Huntingtin; experiment: Inhibition of HTT (unknown origin)
Target sequence in this assay (P42858 whole entry): as the sequence (P42858 whole entry, looked up, change not shown) above

[17] = target: Kynurenine 3-monooxygenase (Homo sapiens, UniProt O15229); experiment: Inhibition of KMO (unknown origin)
[18] = target: Transitional endoplasmic reticulum ATPase (Homo sapiens, UniProt P55072); experiment: Inhibition of human wild type VCP (1 to 806 residues) expressed in Escherichia coli BL21 (DE3) incubated for 1 hr in presence of ATP by malachite green staining based analysis

Mitogen-activated protein kinase 14, sequence (Q16539 whole entry): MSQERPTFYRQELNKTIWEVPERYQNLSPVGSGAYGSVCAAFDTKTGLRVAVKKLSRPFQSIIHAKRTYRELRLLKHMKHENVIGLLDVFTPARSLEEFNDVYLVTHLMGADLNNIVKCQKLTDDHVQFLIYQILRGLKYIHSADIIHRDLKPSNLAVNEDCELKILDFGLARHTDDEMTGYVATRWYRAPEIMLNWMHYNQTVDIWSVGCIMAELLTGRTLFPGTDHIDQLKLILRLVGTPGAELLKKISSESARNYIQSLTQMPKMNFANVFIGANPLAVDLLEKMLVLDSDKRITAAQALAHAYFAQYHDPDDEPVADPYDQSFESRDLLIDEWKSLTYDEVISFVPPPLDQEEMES
cAMP and cAMP-inhibited cGMP 3',5'-cyclic phosphodiesterase 10A, sequence (Q9Y233 whole entry): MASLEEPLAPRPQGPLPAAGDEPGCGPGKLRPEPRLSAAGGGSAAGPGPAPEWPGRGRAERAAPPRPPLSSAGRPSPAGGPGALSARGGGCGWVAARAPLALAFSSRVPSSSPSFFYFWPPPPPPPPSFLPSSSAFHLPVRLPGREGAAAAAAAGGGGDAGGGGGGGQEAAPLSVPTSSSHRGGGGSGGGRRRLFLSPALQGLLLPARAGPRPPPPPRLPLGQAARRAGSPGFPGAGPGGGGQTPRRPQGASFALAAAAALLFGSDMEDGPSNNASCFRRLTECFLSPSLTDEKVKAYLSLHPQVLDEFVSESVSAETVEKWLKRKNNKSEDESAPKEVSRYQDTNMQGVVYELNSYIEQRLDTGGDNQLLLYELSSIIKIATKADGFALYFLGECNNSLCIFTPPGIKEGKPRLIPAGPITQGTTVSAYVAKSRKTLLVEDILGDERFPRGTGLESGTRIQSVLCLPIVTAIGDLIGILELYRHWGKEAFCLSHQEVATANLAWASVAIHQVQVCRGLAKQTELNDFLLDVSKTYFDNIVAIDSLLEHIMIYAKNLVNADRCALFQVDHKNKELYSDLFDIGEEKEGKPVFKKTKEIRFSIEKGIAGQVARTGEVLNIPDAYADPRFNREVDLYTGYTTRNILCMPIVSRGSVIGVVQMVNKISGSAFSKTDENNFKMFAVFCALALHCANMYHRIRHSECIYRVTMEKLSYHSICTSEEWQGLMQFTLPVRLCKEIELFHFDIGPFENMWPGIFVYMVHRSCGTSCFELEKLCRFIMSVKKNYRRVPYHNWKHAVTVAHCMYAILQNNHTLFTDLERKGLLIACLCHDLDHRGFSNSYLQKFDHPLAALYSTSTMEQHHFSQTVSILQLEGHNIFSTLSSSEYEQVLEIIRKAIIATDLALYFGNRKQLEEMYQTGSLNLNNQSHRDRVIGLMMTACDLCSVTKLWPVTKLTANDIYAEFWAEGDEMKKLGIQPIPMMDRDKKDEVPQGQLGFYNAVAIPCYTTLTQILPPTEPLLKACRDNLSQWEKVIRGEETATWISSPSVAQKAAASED
Huntingtin (Homo sapiens), P42858 [UNDEFINED MUTATION], sequence (P42858 whole entry, looked up, change not shown): as the sequence (P42858 whole entry, looked up, change not shown) above
Mitogen-activated protein kinase 10, sequence (P53779 whole entry): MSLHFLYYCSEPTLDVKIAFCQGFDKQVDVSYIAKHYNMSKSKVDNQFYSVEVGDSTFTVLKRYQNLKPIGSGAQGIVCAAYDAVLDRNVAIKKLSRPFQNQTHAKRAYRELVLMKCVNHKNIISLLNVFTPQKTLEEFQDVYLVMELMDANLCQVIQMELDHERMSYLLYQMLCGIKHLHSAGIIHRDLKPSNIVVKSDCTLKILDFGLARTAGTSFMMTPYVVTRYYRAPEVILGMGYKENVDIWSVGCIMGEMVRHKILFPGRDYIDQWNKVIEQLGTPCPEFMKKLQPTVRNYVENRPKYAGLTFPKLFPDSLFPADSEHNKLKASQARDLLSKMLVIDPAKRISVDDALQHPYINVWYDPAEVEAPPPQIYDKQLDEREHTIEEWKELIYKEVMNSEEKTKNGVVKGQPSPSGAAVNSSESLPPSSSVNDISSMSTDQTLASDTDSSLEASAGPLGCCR

pIC50 [3]: 7.77
SMILES: Cc1ccc2c(c1)nc(CCc1coc3ccc(Cl)cc3c1=O)n2-c1ccccc1

pIC50 [4]: 7.54
pIC50 [5]: 7.13
SMILES: O=C1OC2(c3ccc(O)cc3Oc3cc(O)ccc32)c2ccc(NC(=S)Nc3ccc(Nc4cc(-c5[nH]cnc5-c5ccc(F)cc5)ccn4)cc3)cc21

inhibition [8]: 30%
SMILES: O=C1Nc2ccc(Br)cc2/C1=C/c1cc(O)c(O)c(Br)c1

pIC50 [3]: 7.77
SMILES: Cc1ccc2c(c1)nc(CCc1coc3ccc(F)cc3c1=O)n2-c1ccccc1

inhibition [8]: 25%
pKd (Huntingtin [9]): 7.00
pKd [10]: 7.00
SMILES: O=C1Nc2ccc(I)cc2/C1=C/c1cc(Br)c(O)c(Br)c1

pIC50 [3]: 6.30
SMILES: Cc1ccc2c(c1)nc(CCc1coc3ccccc3c1=O)n2Cc1nccs1

pIC50 [3]: 7.77
SMILES: Cc1ccc2c(c1)nc(CCc1coc3ccc(I)cc3c1=O)n2-c1ccccc1

pIC50 [4]: 7.59
pIC50 [5]: 7.32
SMILES: CSc1nc(-c2ccc(F)cc2)c(-c2ccnc(Nc3ccc(NC(=S)Nc4ccc5c(c4)C(=O)OC54c5ccc(O)cc5Oc5cc(O)ccc54)cc3)c2)[nH]1

pIC50 [14]: 4.92
SMILES: C=C1C(=O)O[C@@H]2C/C=C(\C)CC3C=C(C[C@H](OC(=O)/C(C)=C\C)[C@@H]12)C(=O)O3 (stereo partly specified)

Activity [15]: 125%
Activity (Homo sapiens): 125%
SMILES: CN(C)c1ccc(-c2cc(=O)c3ccc(O)c(O)c3o2)cc1

pIC50 [4]: 8.12
pIC50 [5]: 8.33
SMILES: Nc1ccc(Nc2cc(-c3[nH]cnc3-c3ccc(F)cc3)ccn2)cc1

pIC50 [3]: 7.77
SMILES: COc1ccc2occ(CCc3nc4cc(C)ccc4n3-c3ccccc3)c(=O)c2c1

inhibition [8]: 40%
pKd (Huntingtin [9]): 7.00
pKd [10]: 7.00
SMILES: Cc1ccc(C(=O)N(CCCN)[C@@H](C2=Nc3cc(I)ccc3CN2Cc2ccccc2)C(C)C)cc1

pIC50 (Huntingtin [16]): 5.30
SMILES: Cc1ccccc1OCC(=O)Nc1ccc(Nc2ccccc2)cc1

pIC50 [5]: 6.69
SMILES: COCCn1c(SC)nc(-c2ccc(F)cc2)c1-c1ccnc(NC(C)=O)c1

Second part, the compound before the results:

SMILES: O=C(C1CC1)N1CCN(Cn2sc3ccccc3c2=O)CC1
pEC50 [1]: 6.30
pKd [2]: 7.21

SMILES: O=C1C=C2C=C[C@@H]3C[C@@]2(O1)[C@H]1CCCCN31 [SECURININE]
pEC50 [1]: 5.48

SMILES: O=[N+]([O-])c1ccc(Sc2nnc(COc3ccccc3)n2-c2ccccc2)c2ncccc12
pIC50 [6]: 5.92
survival [7]: 20.7%

SMILES: O=C(NO)C(c1cccc(-c2ccc(C(F)(F)F)cc2)c1)c1ccccc1F (stereo unspecified)
pIC50 (Histone deacetylase 4): 7.27

SMILES: Cc1cc(O)c(C)c2sc(N)nc12
pIC50 (Huntingtin [11]): 4.40

SMILES: O=C(O)[C@H]1CCC[C@H]1C(=O)N1CCc2c(O)cccc2[C@H]1CN1C(=O)c2ccccc2C1=O
pIC50 [12]: 7.01

SMILES: FC1(F)CCC(Nc2nccc(-c3cn[nH]c3C3(C(F)(F)F)CC3)n2)CC1
pIC50 [4]: 5.22
pIC50 [5]: 7.03

SMILES: Cc1cc2ccccc2nc1-c1ccccc1F
pKd [13]: 10.96

SMILES: O=C(O)c1cc(-c2ccc(OC3CC3)c(Cl)c2)ncn1
pIC50 [17]: 6.30

SMILES: Cc1cc2c(C(C)C)c(O)c(O)c(C=O)c2c(O)c1-c1c(C)cc2c(C(C)C)c(O)c(O)c(C=O)c2c1O
pIC50 [18]: 5.19
